Among the data in the supplement of paper PMC10307832 are relative viability values, retold here.

What all share (test): relative viability (nuclei count vs DMSO), 5 days (fraction); higher = more cells survive
Compound in the experiment “Quizartinib + Crizotinib”: CC(C)(C)c1cc(NC(=O)Nc2ccc(-c3cn4c(n3)sc3cc(OCCN5CCOCC5)ccc34)cc2)no1 [Quizartinib] + C[C@@H](Oc1cc(-c2cnn(C3CCNCC3)c2)cnc1N)c1c(Cl)ccc(F)c1Cl [Crizotinib] (partner 1 µM)
A digest of the protocol: (§1)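 A single step with final 0.05% Triton X-100, 1% formaldehyde and 1 ug/ml Hoechst fixed the cells and stained nuclei 5 days after treatment. Lung cancer cell lines in 1536-well plates had been treated by pin tool the day after seeding with one drug alone or a fixed anchor-drug dose plus five library-drug doses (not always all listed) in √10 steps, and nuclei were counted on 4× images. Relative viability is the ratio of nuclei in treated wells to nuclei in vehicle wells, taken as the median of duplicate plates.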

Compound in the experiment “Quizartinib + Bortezomib”: CC(C)(C)c1cc(NC(=O)Nc2ccc(-c3cn4c(n3)sc3cc(OCCN5CCOCC5)ccc34)cc2)no1 [Quizartinib] + CC(C)C[C@H](NC(=O)[C@H](Cc1ccccc1)NC(=O)c1cnccn1)B(O)O [Bortezomib] (partner 0.002 µM)
In outline:
as §1

Compound in the experiment “YM155 + Bortezomib”: COCC[n+]1c2c(n(Cc3cnccn3)c1C)C(=O)c1ccccc1C2=O [YM155] + CC(C)C[C@H](NC(=O)[C@H](Cc1ccccc1)NC(=O)c1cnccn1)B(O)O [Bortezomib] (partner 0.002 µM)
A digest of the protocol: as §1

Compound in the experiment “YM155 + AZD7762”: COCC[n+]1c2c(n(Cc3cnccn3)c1C)C(=O)c1ccccc1C2=O [YM155] + NC(=O)Nc1cc(-c2cccc(F)c2)sc1C(=O)N[C@H]1CCCNC1 [AZD7762] (partner 0.2 µM)
A digest of the protocol:
as §1

As for NCI-H1563, the relative viability with Quizartinib + Crizotinib (first compound 0.001 µM) worked out at 0.825; with Quizartinib + Crizotinib (first compound 0.003162 µM) it was 0.851; with Quizartinib + Crizotinib (first compound 0.01 µM), 0.982; with Quizartinib + Crizotinib (first compound 0.1 µM) it was 0.78; in the experiment with Quizartinib + Bortezomib (first compound 0.001 µM) it was 0.968; with Quizartinib + Bortezomib (first compound 0.003162 µM) it was 0.833. Moreover, the relative viability was determined as 0.791 in the experiment with Quizartinib + Bortezomib (first compound 0.01 µM); 0.84 with Quizartinib + Bortezomib (first compound 0.1 µM); 0.974 with YM155 + Bortezomib (first compound 0.002 µM); 0.926 in the experiment with YM155 + Bortezomib (first compound 0.006325 µM); 0.907 in the experiment with YM155 + Bortezomib (first compound 0.02 µM); 0.989 with YM155 + Bortezomib (first compound 0.06325 µM).
As for NCI-H1650, the relative viability worked out at 0.891 with Quizartinib + Crizotinib (first compound 0.001 µM); 0.957 with Quizartinib + Crizotinib (first compound 0.003162 µM); 1.23 with Quizartinib + Crizotinib (first compound 0.01 µM); 0.881 with Quizartinib + Crizotinib (first compound 0.1 µM); 0.139 with Quizartinib + Bortezomib (first compound 0.001 µM); 0.184 with Quizartinib + Bortezomib (first compound 0.003162 µM). Further, the relative viability came to 0.207 in the experiment with Quizartinib + Bortezomib (first compound 0.01 µM); 0.191 in the experiment with Quizartinib + Bortezomib (first compound 0.1 µM); 0.216 with YM155 + Bortezomib (first compound 0.002 µM); 0.23 in the experiment with YM155 + Bortezomib (first compound 0.006325 µM); 0.221 with YM155 + Bortezomib (first compound 0.02 µM); 0.19 with YM155 + Bortezomib (first compound 0.06325 µM).
On to NCI-H1793, for which the relative viability with YM155 + AZD7762 (first compound 0.002 µM) was 0.329; in the experiment with YM155 + AZD7762 (first compound 0.006325 µM) it was 0.619; with YM155 + AZD7762 (first compound 0.02 µM) it was 0.532; with YM155 + AZD7762 (first compound 0.06325 µM), 0.46.
As for NCI-H1944, the relative viability with Quizartinib + Crizotinib (first compound 0.001 µM) is 1.11; in the experiment with Quizartinib + Crizotinib (first compound 0.003162 µM) it was 1.09; with Quizartinib + Crizotinib (first compound 0.01 µM), 1.15; in the experiment with Quizartinib + Crizotinib (first compound 0.03162 µM), 1.21; with Quizartinib + Crizotinib (first compound 0.1 µM), 1.11; in the experiment with YM155 + AZD7762 (first compound 0.002 µM), 0.619. Also, the results for the relative viability with YM155 + AZD7762 (first compound 0.006325 µM), with YM155 + AZD7762 (first compound 0.02 µM) and in the experiment with YM155 + AZD7762 (first compound 0.06325 µM) were 0.414, 0.531 and 0.58, respectively.
Turning to NCI-H2009, the relative viability in the experiment with Quizartinib + Crizotinib (first compound 0.001 µM) stood at 0.984; with Quizartinib + Crizotinib (first compound 0.003162 µM), 1.02; with Quizartinib + Crizotinib (first compound 0.01 µM) it was 0.994; in the experiment with Quizartinib + Crizotinib (first compound 0.03162 µM), 0.603; in the experiment with Quizartinib + Crizotinib (first compound 0.1 µM), 1; in the experiment with Quizartinib + Bortezomib (first compound 0.001 µM), 0.423. Further, the relative viability came to 0.879 with Quizartinib + Bortezomib (first compound 0.003162 µM); 0.948 with Quizartinib + Bortezomib (first compound 0.01 µM); 1.02 in the experiment with Quizartinib + Bortezomib (first compound 0.03162 µM); 0.926 with Quizartinib + Bortezomib (first compound 0.1 µM); 0.944 with YM155 + Bortezomib (first compound 0.002 µM); 1.02 in the experiment with YM155 + Bortezomib (first compound 0.006325 µM). The figures for the relative viability in the experiment with YM155 + Bortezomib (first compound 0.02 µM) and in the experiment with YM155 + Bortezomib (first compound 0.06325 µM) were 1.04 and 0.923, respectively.
Turning to NCI-H2023, the relative viability was 0.648 with Quizartinib + Crizotinib (first compound 0.001 µM); 0.57 with Quizartinib + Crizotinib (first compound 0.003162 µM); 0.799 with Quizartinib + Crizotinib (first compound 0.01 µM); 0.246 with Quizartinib + Crizotinib (first compound 0.03162 µM); 0.543 in the experiment with Quizartinib + Crizotinib (first compound 0.1 µM); 0.777 with Quizartinib + Bortezomib (first compound 0.001 µM). Further, the relative viability in the experiment with Quizartinib + Bortezomib (first compound 0.003162 µM) is 0.947; with Quizartinib + Bortezomib (first compound 0.01 µM), 0.942; with Quizartinib + Bortezomib (first compound 0.03162 µM), 0.751; in the experiment with Quizartinib + Bortezomib (first compound 0.1 µM), 0.926; in the experiment with YM155 + Bortezomib (first compound 0.002 µM), 0.984; with YM155 + Bortezomib (first compound 0.006325 µM), 1.01. Moreover, the relative viability worked out at 1.17 with YM155 + Bortezomib (first compound 0.02 µM) and 0.893 with YM155 + Bortezomib (first compound 0.06325 µM).
Consider NCI-H2170, for which the relative viability with Quizartinib + Crizotinib (first compound 0.001 µM) amounted to 1.15; in the experiment with Quizartinib + Crizotinib (first compound 0.003162 µM), 1.11; with Quizartinib + Crizotinib (first compound 0.01 µM), 1.17; with Quizartinib + Crizotinib (first compound 0.03162 µM) it was 1.2; with Quizartinib + Crizotinib (first compound 0.1 µM), 1.19; with YM155 + AZD7762 (first compound 0.002 µM) it was 0.873. Further, the figures for the relative viability with YM155 + AZD7762 (first compound 0.006325 µM), with YM155 + AZD7762 (first compound 0.02 µM) and with YM155 + AZD7762 (first compound 0.06325 µM) were 0.817, 0.839 and 0.734, respectively.
Turning to NCI-H2228, the relative viability with Quizartinib + Crizotinib (first compound 0.001 µM) is 0.439; with Quizartinib + Crizotinib (first compound 0.003162 µM) it was 0.414; in the experiment with Quizartinib + Crizotinib (first compound 0.01 µM) it was 0.317; with Quizartinib + Crizotinib (first compound 0.03162 µM), 0.418; with Quizartinib + Crizotinib (first compound 0.1 µM) it was 0.429; in the experiment with Quizartinib + Bortezomib (first compound 0.001 µM) it was 1.05. Besides, the relative viability with Quizartinib + Bortezomib (first compound 0.003162 µM) worked out at 0.995; with Quizartinib + Bortezomib (first compound 0.01 µM), 0.937; in the experiment with Quizartinib + Bortezomib (first compound 0.03162 µM) it was 0.92; with Quizartinib + Bortezomib (first compound 0.1 µM), 1.08; with YM155 + Bortezomib (first compound 0.002 µM) it was 0.975; with YM155 + Bortezomib (first compound 0.006325 µM), 0.923. The relative viability with YM155 + Bortezomib (first compound 0.02 µM) was 1.11; with YM155 + Bortezomib (first compound 0.06325 µM) it was 1.1.
With NCI-H2342, the relative viability in the experiment with YM155 + AZD7762 (first compound 0.002 µM) came to 0.612; in the experiment with YM155 + AZD7762 (first compound 0.006325 µM) it was 0.379; in the experiment with YM155 + AZD7762 (first compound 0.02 µM), 0.515; with YM155 + AZD7762 (first compound 0.06325 µM), 0.383.
Turning to SK-LU-1, the relative viability in the experiment with Quizartinib + Crizotinib (first compound 0.001 µM) was 0.797; in the experiment with Quizartinib + Crizotinib (first compound 0.003162 µM) it was 0.785; in the experiment with Quizartinib + Crizotinib (first compound 0.01 µM), 1.23; with Quizartinib + Crizotinib (first compound 0.03162 µM), 0.781; with Quizartinib + Crizotinib (first compound 0.1 µM), 0.914; with Quizartinib + Bortezomib (first compound 0.001 µM), 0.95. Moreover, the relative viability worked out at 1.12 with Quizartinib + Bortezomib (first compound 0.003162 µM); 1.24 with Quizartinib + Bortezomib (first compound 0.01 µM); 0.969 in the experiment with Quizartinib + Bortezomib (first compound 0.03162 µM); 1.2 with Quizartinib + Bortezomib (first compound 0.1 µM); 1.05 in the experiment with YM155 + Bortezomib (first compound 0.002 µM); 1.04 in the experiment with YM155 + Bortezomib (first compound 0.006325 µM). The results for the relative viability with YM155 + Bortezomib (first compound 0.02 µM) and in the experiment with YM155 + Bortezomib (first compound 0.06325 µM) were 1.54 and 1.09, respectively.
Turning to SK-MES-1, the relative viability with Quizartinib + Crizotinib (first compound 0.001 µM) worked out at 0.943; with Quizartinib + Crizotinib (first compound 0.003162 µM), 0.949; with Quizartinib + Crizotinib (first compound 0.01 µM), 1.12; with Quizartinib + Crizotinib (first compound 0.03162 µM), 0.976; with Quizartinib + Crizotinib (first compound 0.1 µM) it was 0.937.
Take SW 900: the relative viability with YM155 + AZD7762 (first compound 0.006325 µM) stood at 0.543; with YM155 + AZD7762 (first compound 0.02 µM), 0.825; with YM155 + AZD7762 (first compound 0.06325 µM) it was 0.64.
For the cell line SW 1573, the relative viability stood at 0.611 with Quizartinib + Crizotinib (first compound 0.001 µM); 0.837 with Quizartinib + Crizotinib (first compound 0.003162 µM); 0.823 with Quizartinib + Crizotinib (first compound 0.01 µM); 0.803 with Quizartinib + Crizotinib (first compound 0.03162 µM); 0.895 with Quizartinib + Crizotinib (first compound 0.1 µM); 0.71 with Quizartinib + Bortezomib (first compound 0.001 µM). The relative viability in the experiment with Quizartinib + Bortezomib (first compound 0.003162 µM) worked out at 0.804; with Quizartinib + Bortezomib (first compound 0.01 µM), 1.24; with Quizartinib + Bortezomib (first compound 0.03162 µM), 0.684; in the experiment with Quizartinib + Bortezomib (first compound 0.1 µM) it was 1.01; with YM155 + Bortezomib (first compound 0.002 µM) it was 0.95; with YM155 + Bortezomib (first compound 0.006325 µM), 0.946. For the same cell line, the relative viability was 0.954 with YM155 + Bortezomib (first compound 0.02 µM) and 0.568 with YM155 + Bortezomib (first compound 0.06325 µM).
Consider UMC-11, for which the relative viability in the experiment with Quizartinib + Crizotinib (first compound 0.001 µM) was 0.543; with Quizartinib + Crizotinib (first compound 0.003162 µM), 0.562; with Quizartinib + Crizotinib (first compound 0.01 µM) it was 0.739; with Quizartinib + Crizotinib (first compound 0.03162 µM) it was 0.66; with Quizartinib + Crizotinib (first compound 0.1 µM), 0.577; with Quizartinib + Bortezomib (first compound 0.001 µM), 0.242. Moreover, the relative viability stood at 0.852 in the experiment with Quizartinib + Bortezomib (first compound 0.003162 µM); 0.875 with Quizartinib + Bortezomib (first compound 0.01 µM); 0.769 in the experiment with Quizartinib + Bortezomib (first compound 0.03162 µM); 0.653 with Quizartinib + Bortezomib (first compound 0.1 µM); 0.692 in the experiment with YM155 + Bortezomib (first compound 0.002 µM); 0.557 with YM155 + Bortezomib (first compound 0.006325 µM). The relative viability is 0.719 with YM155 + Bortezomib (first compound 0.02 µM) and 0.667 with YM155 + Bortezomib (first compound 0.06325 µM).
